US20030118651A1, “Bio-compatible means for controlled drug delivery to tissue and method of use” (priority 2001, published 2003)

Format: physicochemical
Conditions: pH 7.4
Procedure: The ORC-active agent combinations of example 2 and 3 can be suspended in neutral buffers at pH 7.4 at 37° C. to simulate body conditions for the purpose of studying the release of the drug in the buffer (in vitro). The test samples released Marcaine in the buffer while degrading. The ORC matrix is expected to degrade completely in 3-5 days if needed, degradation can be accelerated (terminal samples) by adding sodium bicarbonate base to the buffer solution. More particularly, for example, water bath is pre-heated to 37° C. Test samples of the ORC-Marcaine are cut into small pieces and the samples (in the range of 0.05g-01 g) are weighed and placed in labeled vials. The desired amount of buffer (e.g., 100, 50, 25 or 10 times, by weight, of the test sample) is added. For terminal samples, sufficient sodium bicarbonate is added to make a 0.15 M solution. The vials are placed in the pre-heated water bath for the desired period of time (approximately 10 min-120 hours).

- time to complete degradation: 3 to 5 days
Substance: oxidized regenerated cellulose [ORC matrix]
